In PubChem BioAssay (NCI):
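Five compound concentrations were applied to cells in 96-well plates for 48 hours; endpoints were derived by simple linear interpolation of the resulting dose-response curve. Abbreviation: GI50, concentration required for 50% inhibition of growth. Definition used: TGI = concentration required for complete inhibition of growth.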

How the values were obtained:
Experiment in all cases: growth of human tumour cells (NCI), 48 h
[1] = test system: 786-0 renal
[2] = test system: A498 renal
[3] = test system: A549 NSCLC
[4] = test system: ACHN renal
[5] = test system: BT-549 breast
[6] = test system: CAKI-1 renal
[7] = test system: CCRF-CEM leukemia
[8] = test system: COLO 205 colon
[9] = test system: DU-145 prostate
[10] = test system: EKVX NSCLC
[11] = test system: HCC-2998 colon
[12] = test system: HCT-116 colon
[13] = test system: HCT-15 colon
[14] = test system: HL-60(TB) leukemia
[15] = test system: HOP-62 NSCLC
[16] = test system: HOP-92 NSCLC
[17] = test system: HS 578T breast
[18] = test system: HT29 colon
[19] = test system: IGROV1 ovarian
[20] = test system: KM12 colon
[21] = test system: LOX IMVI melanoma
[22] = test system: M14 melanoma
[23] = test system: MALME-3M melanoma
[24] = test system: MCF7 breast
[25] = test system: MDA-MB-231 breast
[26] = test system: MDA-MB-435
[27] = test system: MDA-N
[28] = test system: MOLT-4 leukemia
[29] = test system: NCI-H226 lung
[30] = test system: NCI-H23 lung
[31] = test system: NCI-H460 lung
[32] = test system: NCI-H522 lung
[33] = test system: NCI/ADR-RES ovarian
[34] = test system: OVCAR-3 ovarian
[35] = test system: OVCAR-4 ovarian
[36] = test system: OVCAR-5 ovarian
[37] = test system: OVCAR-8 ovarian
[38] = test system: PC-3 prostate
[39] = test system: RPMI-8226 leukemia
[40] = test system: RXF 393 renal
[41] = test system: SF-268 CNS
[42] = test system: SF-295 CNS
[43] = test system: SF-539 CNS
[44] = test system: SK-MEL-2 melanoma
[45] = test system: SK-MEL-28 melanoma
[46] = test system: SK-MEL-5 melanoma
[47] = test system: SK-OV-3 ovarian
[48] = test system: SN12C renal
[49] = test system: SNB-19 CNS
[50] = test system: SR leukemia
[51] = test system: SW-620 colon
[52] = test system: T-47D breast
[53] = test system: TK-10 renal
[54] = test system: U251 CNS
[55] = test system: UACC-257 melanoma
[56] = test system: UACC-62 melanoma
[57] = test system: UO-31 renal
[58] = test system: K-562 leukemia
[59] = test system: SNB-75 CNS

CC1OC(O[C@H]2C[C@@H](O)[C@]3(CO)[C@H]4[C@H](O)C[C@]5(C)[C@@H](C6=CC(=O)OC6)CC[C@]5(O)[C@@H]4CC[C@]3(O)C2)C(O)C(O)C1O (some centres undefined)
GI50 [1]: 19.9 µM
TGI [1]: 36.3 µM
GI50 [2]: 20.4 µM
TGI [2]: 39 µM
GI50 [3]: 21.2 µM
TGI [3]: 39 µM
GI50 [4]: 20.2 µM
TGI [4]: 35.5 µM
GI50 [5]: 18 µM
TGI [5]: 32.7 µM
GI50 [6]: 17.7 µM
TGI [6]: 33.9 µM
TGI [7]: 52.5 µM
GI50 [8]: 18.5 µM
TGI [8]: 33.7 µM
GI50 [9]: 19.3 µM
TGI [9]: 34 µM
GI50 [10]: 16.5 µM
TGI [10]: 30.5 µM
GI50 [11]: 20.2 µM
TGI [11]: 36.6 µM
GI50 [12]: 19 µM
TGI [12]: 33.7 µM
GI50 [13]: 17.3 µM
TGI [13]: 31.9 µM
GI50 [14]: 21 µM
TGI [14]: 41.6 µM
GI50 [15]: 21.7 µM
TGI [15]: 51.9 µM
GI50 [16]: 24.4 µM
TGI [16]: 57.6 µM
GI50 [17]: 25.6 µM
TGI [17]: 65.9 µM
GI50 [18]: 19.5 µM
TGI [18]: 36 µM
GI50 [19]: 19.7 µM
TGI [19]: 36.7 µM
GI50 [20]: 17.8 µM
TGI [20]: 32.3 µM
GI50 [21]: 19 µM
TGI [21]: 34 µM
GI50 [22]: 27.7 µM
TGI [22]: 87.5 µM
GI50 [23]: 19.5 µM
TGI [23]: 35.9 µM
GI50 [24]: 22.9 µM
TGI [24]: 42.7 µM
GI50 [25]: 21 µM
TGI [25]: 40.5 µM
GI50 [26]: 19.5 µM
TGI [26]: 38.6 µM
GI50 [27]: 18.8 µM
TGI [27]: 33.7 µM
GI50 [28]: 17.9 µM
TGI [28]: 41.8 µM
GI50 [29]: 22.7 µM
TGI [29]: 52 µM
GI50 [30]: 21.5 µM
TGI [30]: 41.8 µM
GI50 [31]: 19.1 µM
TGI [31]: 35.4 µM
GI50 [32]: 17.8 µM
TGI [32]: 32.5 µM
GI50 [33]: 19.5 µM
TGI [33]: 39.9 µM
GI50 [34]: 19.8 µM
TGI [34]: 40.7 µM
GI50 [35]: 17.3 µM
TGI [35]: 33.1 µM
GI50 [36]: 35.7 µM
TGI [36]: > 100 µM
GI50 [37]: 19.2 µM
TGI [37]: 34.8 µM
GI50 [38]: 20.4 µM
TGI [38]: 41.4 µM
GI50 [39]: 26.5 µM
TGI [39]: 54.5 µM
GI50 [40]: 27.5 µM
TGI [40]: 75.6 µM
GI50 [41]: 18.9 µM
TGI [41]: 33.5 µM
GI50 [42]: 19.3 µM
TGI [42]: 35.3 µM
GI50 [43]: 21.4 µM
TGI [43]: 39.5 µM
GI50 [44]: 20.2 µM
TGI [44]: 44.8 µM
GI50 [45]: 21.7 µM
TGI [45]: 46.3 µM
GI50 [46]: 17.7 µM
TGI [46]: 35.2 µM
GI50 [47]: 18.8 µM
TGI [47]: 33.8 µM
GI50 [48]: 20.6 µM
TGI [48]: 40.6 µM
GI50 [49]: 18.3 µM
TGI [49]: 33.6 µM
GI50 [50]: 10.2 µM
TGI [50]: 38 µM
GI50 [51]: 22.5 µM
TGI [51]: 48.7 µM
GI50 [52]: 24.9 µM
TGI [52]: 51.5 µM
GI50 [53]: 16.2 µM
TGI [53]: 30 µM
GI50 [54]: 18.8 µM
TGI [54]: 33.7 µM
GI50 [55]: 19.5 µM
TGI [55]: 39.2 µM
GI50 [56]: 17.6 µM
TGI [56]: 32.4 µM
GI50 [57]: 24.7 µM
TGI [57]: 57.1 µM

Cc1ccc([C@@H]2[C@@H](C(=O)c3ccccn3)[C@H](c3ccc(C)cc3)C[C@](O)(c3ccccn3)[C@H]2C(=O)c2ccccn2)cc1
TGI [1]: 9.15 µM
TGI [2]: > 41.6 µM
TGI [3]: > 44.7 µM
TGI [4]: > 40.4 µM
TGI [5]: > 100 µM
TGI [6]: > 100 µM
TGI [7]: 4.43 µM
TGI [8]: > 100 µM
TGI [9]: > 100 µM
TGI [11]: > 100 µM
TGI [12]: > 100 µM
TGI [13]: > 100 µM
TGI [14]: 6.92 µM
TGI [15]: > 100 µM
TGI [16]: > 100 µM
TGI [17]: > 100 µM
TGI [18]: > 100 µM
TGI [19]: > 100 µM
TGI [58]: > 100 µM
TGI [20]: > 100 µM
TGI [21]: > 100 µM
TGI [22]: 3.01 µM
TGI [23]: > 100 µM
TGI [24]: > 100 µM
TGI [25]: > 100 µM
TGI [26]: > 100 µM
TGI [27]: > 28.5 µM
TGI [28]: > 100 µM
TGI [29]: > 100 µM
TGI [30]: > 100 µM
TGI [31]: 10.7 µM
TGI [32]: > 100 µM
TGI [33]: > 100 µM
TGI [34]: > 64.4 µM
TGI [35]: > 100 µM
TGI [36]: > 85.8 µM
TGI [37]: > 100 µM
TGI [38]: > 100 µM
TGI [39]: > 92.6 µM
TGI [40]: > 100 µM
TGI [41]: > 100 µM
TGI [42]: > 100 µM
TGI [43]: > 100 µM
TGI [44]: > 100 µM
TGI [45]: > 100 µM
TGI [46]: > 100 µM
TGI [47]: > 39.2 µM
TGI [48]: > 100 µM
TGI [49]: > 64.3 µM
TGI [59]: > 100 µM
TGI [50]: > 100 µM
TGI [51]: > 100 µM
TGI [52]: > 100 µM
TGI [53]: > 100 µM
TGI [54]: > 100 µM
TGI [55]: > 100 µM
TGI [56]: 35.2 µM
TGI [57]: > 100 µM

O=c1nc(N2CCN(c3ccccc3)CC2)ccn1C1OC(CO)C(O)C1O (centres undefined)
TGI [1]: > 100 µM
TGI [2]: > 100 µM
TGI [3]: > 100 µM
TGI [4]: > 100 µM
TGI [5]: > 100 µM
TGI [6]: > 100 µM
TGI [7]: > 100 µM
TGI [8]: > 100 µM
TGI [9]: > 100 µM
TGI [10]: > 100 µM
TGI [11]: > 100 µM
TGI [12]: > 100 µM
TGI [13]: > 100 µM
TGI [14]: 63.5 µM
TGI [15]: > 100 µM
TGI [16]: > 100 µM
TGI [17]: > 100 µM
TGI [18]: > 100 µM
TGI [19]: > 100 µM
TGI [58]: > 100 µM
TGI [20]: > 100 µM
TGI [21]: > 100 µM
TGI [22]: > 100 µM
TGI [23]: > 100 µM
TGI [24]: > 100 µM
TGI [25]: > 100 µM
TGI [26]: > 100 µM
TGI [27]: > 100 µM
TGI [28]: > 100 µM
TGI [29]: > 100 µM
TGI [30]: > 100 µM
TGI [31]: > 100 µM
TGI [32]: > 100 µM
TGI [33]: > 100 µM
TGI [34]: > 100 µM
TGI [35]: > 100 µM
TGI [36]: > 100 µM
TGI [37]: > 100 µM
TGI [38]: > 100 µM
TGI [39]: > 100 µM
TGI [40]: > 100 µM
TGI [41]: > 100 µM
TGI [42]: > 100 µM
TGI [43]: > 100 µM
TGI [44]: > 100 µM
TGI [45]: > 100 µM
TGI [46]: > 100 µM
TGI [47]: > 100 µM
TGI [48]: > 100 µM
TGI [49]: > 100 µM
TGI [50]: > 100 µM
TGI [51]: > 100 µM
TGI [52]: 65.6 µM
TGI [53]: > 100 µM
TGI [54]: > 100 µM
TGI [55]: > 100 µM
TGI [56]: > 100 µM
TGI [57]: > 100 µM
